Source: PubChem BioAssay (NCI)
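Grown in 96-well plates, cells were treated for 48 hours with each compound at five concentrations. Insufficient inhibition: endpoint recorded as highest concentration tested. At the TGI there is no net growth.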

How the values were obtained:
Experiment in all cases: DTP human tumour cell line panel, 48 h
786-0 renal = test system: 786-0 renal
A498 renal = test system: A498 renal
A549 NSCLC = test system: A549 NSCLC
ACHN renal = test system: ACHN renal
CAKI-1 renal = test system: CAKI-1 renal
CCRF-CEM leukemia = test system: CCRF-CEM leukemia
COLO 205 colon = test system: COLO 205 colon
DLD-1 colon = test system: DLD-1 colon
DMS 114 small cell lung = test system: DMS 114 small cell lung
DMS 273 small cell lung = test system: DMS 273 small cell lung
EKVX NSCLC = test system: EKVX NSCLC
HCC-2998 colon = test system: HCC-2998 colon
HCT-116 colon = test system: HCT-116 colon
HL-60(TB) leukemia = test system: HL-60(TB) leukemia
HOP-18 NSCLC = test system: HOP-18 NSCLC
HOP-92 NSCLC = test system: HOP-92 NSCLC
HT29 colon = test system: HT29 colon
IGROV1 ovarian = test system: IGROV1 ovarian
K-562 leukemia = test system: K-562 leukemia
KM12 colon = test system: KM12 colon
KM20L2 colon = test system: KM20L2 colon
LXFL 529 NSCLC = test system: LXFL 529 NSCLC
M14 melanoma = test system: M14 melanoma
M19-MEL melanoma = test system: M19-MEL melanoma
MALME-3M melanoma = test system: MALME-3M melanoma
MOLT-4 leukemia = test system: MOLT-4 leukemia
NCI-H226 lung = test system: NCI-H226 lung
NCI-H23 lung = test system: NCI-H23 lung
NCI-H460 lung = test system: NCI-H460 lung
NCI-H522 lung = test system: NCI-H522 lung
OVCAR-3 ovarian = test system: OVCAR-3 ovarian
OVCAR-4 ovarian = test system: OVCAR-4 ovarian
OVCAR-8 ovarian = test system: OVCAR-8 ovarian
RXF 393 renal = test system: RXF 393 renal
RXF-631 renal = test system: RXF-631 renal
SF-268 CNS = test system: SF-268 CNS
SF-295 CNS = test system: SF-295 CNS
SF-539 CNS = test system: SF-539 CNS
SK-MEL-2 melanoma = test system: SK-MEL-2 melanoma
SK-MEL-28 melanoma = test system: SK-MEL-28 melanoma
SK-MEL-5 melanoma = test system: SK-MEL-5 melanoma
SK-OV-3 ovarian = test system: SK-OV-3 ovarian
SN12C renal = test system: SN12C renal
SNB-19 CNS = test system: SNB-19 CNS
SNB-75 CNS = test system: SNB-75 CNS
SNB-78 CNS = test system: SNB-78 CNS
SR leukemia = test system: SR leukemia
SW-620 colon = test system: SW-620 colon
TK-10 renal = test system: TK-10 renal
U251 CNS = test system: U251 CNS
UACC-257 melanoma = test system: UACC-257 melanoma
UACC-62 melanoma = test system: UACC-62 melanoma
UO-31 renal = test system: UO-31 renal
HCT-15 colon = test system: HCT-15 colon
HOP-62 NSCLC = test system: HOP-62 NSCLC
LOX IMVI melanoma = test system: LOX IMVI melanoma
OVCAR-5 ovarian = test system: OVCAR-5 ovarian
RPMI-8226 leukemia = test system: RPMI-8226 leukemia
XF 498 CNS = test system: XF 498 CNS

`CCc1cccc(C)c1NC(=O)C(=O)Cc1nc2ccccc2s1` showed a TGI (786-0 renal) greater than 100 µM, a TGI (A498 renal) greater than 100 µM and a TGI (A549 NSCLC) greater than 100 µM. For the same molecule, the TGI (ACHN renal) was greater than 100 µM, the TGI (CAKI-1 renal) was greater than 100 µM and the TGI (CCRF-CEM leukemia) was greater than 100 µM. The TGI (COLO 205 colon) was greater than 100 µM, the TGI (DLD-1 colon) was greater than 100 µM and the TGI (DMS 114 small cell lung) was greater than 100 µM. It also gave a TGI (DMS 273 small cell lung) greater than 100 µM, a TGI (EKVX NSCLC) greater than 100 µM and a TGI (HCC-2998 colon) greater than 100 µM. For the same molecule, the TGI (HCT-116 colon) was greater than 100 µM, the TGI (HL-60(TB) leukemia) was greater than 100 µM and the TGI (HOP-18 NSCLC) was greater than 100 µM. For the same molecule, the TGI (HOP-92 NSCLC) was 5.88 µM, the TGI (HT29 colon) was greater than 100 µM and the TGI (IGROV1 ovarian) was 20.8 µM. For the same molecule, the TGI (K-562 leukemia) was greater than 100 µM, the TGI (KM12 colon) was greater than 100 µM and the TGI (KM20L2 colon) was greater than 100 µM. It also gave a TGI (LXFL 529 NSCLC) greater than 100 µM, a TGI (M14 melanoma) greater than 100 µM and a TGI (M19-MEL melanoma) greater than 100 µM. It also gave a TGI (MALME-3M melanoma) greater than 100 µM, a TGI (MOLT-4 leukemia) greater than 100 µM and a TGI (NCI-H226 lung) greater than 100 µM. It also gave a TGI (NCI-H23 lung) greater than 100 µM, a TGI (NCI-H460 lung) greater than 100 µM and a TGI (NCI-H522 lung) greater than 100 µM. The TGI (OVCAR-3 ovarian) was greater than 100 µM, the TGI (OVCAR-4 ovarian) was greater than 100 µM and the TGI (OVCAR-8 ovarian) was greater than 100 µM. The TGI (RXF 393 renal) was greater than 100 µM, the TGI (RXF-631 renal) was greater than 100 µM and the TGI (SF-268 CNS) was greater than 100 µM. The TGI (SF-295 CNS) was greater than 100 µM, the TGI (SF-539 CNS) was greater than 100 µM and the TGI (SK-MEL-2 melanoma) was greater than 100 µM. The TGI (SK-MEL-28 melanoma) was greater than 100 µM, the TGI (SK-MEL-5 melanoma) was greater than 100 µM and the TGI (SK-OV-3 ovarian) was greater than 100 µM. It also gave a TGI (SN12C renal) greater than 100 µM, a TGI (SNB-19 CNS) greater than 100 µM and a TGI (SNB-75 CNS) greater than 100 µM. The TGI (SNB-78 CNS) was greater than 100 µM, the TGI (SR leukemia) was greater than 100 µM and the TGI (SW-620 colon) was greater than 100 µM. For the same molecule, the TGI (TK-10 renal) was greater than 100 µM, the TGI (U251 CNS) was greater than 100 µM and the TGI (UACC-257 melanoma) was greater than 100 µM. It also gave a TGI (UACC-62 melanoma) greater than 100 µM and a TGI (UO-31 renal) greater than 100 µM.

`C[Si](C)(C)c1ccc(-c2sc(-c3ccc([Si](C)(C)C)s3)c3c2C[Si]2(C3)Cc3c(-c4ccc([Si](C)(C)C)s4)sc(-c4ccc([Si](C)(C)C)s4)c3C2)s1` showed a TGI (786-0 renal) greater than 100 µM, a TGI (A549 NSCLC) greater than 100 µM and a TGI (ACHN renal) greater than 100 µM. For the same molecule, the TGI (CAKI-1 renal) was greater than 100 µM, the TGI (CCRF-CEM leukemia) was greater than 100 µM and the TGI (COLO 205 colon) was greater than 100 µM. It also gave a TGI (DLD-1 colon) greater than 100 µM, a TGI (DMS 273 small cell lung) greater than 100 µM and a TGI (HCC-2998 colon) greater than 100 µM. For the same molecule, the TGI (HCT-116 colon) was greater than 100 µM, the TGI (HCT-15 colon) was greater than 100 µM and the TGI (HL-60(TB) leukemia) was greater than 100 µM. It also gave a TGI (HOP-62 NSCLC) greater than 100 µM, a TGI (HOP-92 NSCLC) greater than 100 µM and a TGI (HT29 colon) greater than 100 µM. It also gave a TGI (IGROV1 ovarian) greater than 100 µM, a TGI (K-562 leukemia) greater than 100 µM and a TGI (KM12 colon) greater than 100 µM. It also gave a TGI (KM20L2 colon) greater than 100 µM, a TGI (LOX IMVI melanoma) greater than 100 µM and a TGI (LXFL 529 NSCLC) greater than 100 µM. It also gave a TGI (M14 melanoma) greater than 100 µM, a TGI (M19-MEL melanoma) greater than 100 µM and a TGI (MALME-3M melanoma) greater than 100 µM. For the same molecule, the TGI (MOLT-4 leukemia) was greater than 100 µM, the TGI (NCI-H226 lung) was greater than 100 µM and the TGI (NCI-H23 lung) was greater than 100 µM. For the same molecule, the TGI (NCI-H460 lung) was greater than 100 µM, the TGI (NCI-H522 lung) was greater than 100 µM and the TGI (OVCAR-3 ovarian) was greater than 100 µM. The TGI (OVCAR-4 ovarian) was greater than 100 µM, the TGI (OVCAR-5 ovarian) was greater than 100 µM and the TGI (OVCAR-8 ovarian) was greater than 100 µM. For the same molecule, the TGI (RPMI-8226 leukemia) was greater than 100 µM, the TGI (RXF 393 renal) was greater than 100 µM and the TGI (RXF-631 renal) was greater than 100 µM. It also gave a TGI (SF-268 CNS) greater than 100 µM, a TGI (SF-295 CNS) greater than 100 µM and a TGI (SF-539 CNS) greater than 100 µM. It also gave a TGI (SK-MEL-28 melanoma) greater than 100 µM, a TGI (SK-MEL-5 melanoma) greater than 100 µM and a TGI (SK-OV-3 ovarian) greater than 100 µM. The TGI (SN12C renal) was greater than 100 µM, the TGI (SNB-19 CNS) was greater than 100 µM and the TGI (SNB-75 CNS) was greater than 100 µM. For the same molecule, the TGI (SNB-78 CNS) was greater than 100 µM, the TGI (SR leukemia) was greater than 100 µM and the TGI (SW-620 colon) was greater than 100 µM. For the same molecule, the TGI (TK-10 renal) was greater than 100 µM, the TGI (U251 CNS) was greater than 100 µM and the TGI (UACC-257 melanoma) was greater than 100 µM. The TGI (UACC-62 melanoma) was greater than 100 µM, the TGI (UO-31 renal) was greater than 100 µM and the TGI (XF 498 CNS) was greater than 100 µM.
